7 compounds from patent US20160008490A1, “METAL CHELATE COMPOUNDS FOR BINDING TO THE PLATELET SPECIFIC GLYCOPROTEIN IIB/IIIA” (BAYER PHARMA AKTIENGESELLSCHAFT, priority 2013, published 2016) can be followed below.

Assay [1] addresses T1, human GP IIb/IIIa receptor (Homo sapiens, UniProt P05106+P08514).
T1 construct: human GPIIb/IIIa purified from human platelets was immobilized on a 96-well solid plate; purchased Enzyme Research Laboratories Inc. (South Bend, Ind.); host or cells: human platelets (natural source, detergent-solubilised)
Kind of assay: GPIIb/IIIa affinity assay (displacement of tritiated reference compound from immobilized receptor). It counts as binding. As to conditions: purified human GPIIb/IIIa, 60 nM 3H-labeled reference compound, 1 hour at room temperature. Here is the method: Affinity assay: In the first step human GPIIb/IIIa purified from human platelets was immobilized on a 96-well solid plate. After 48 hours the plates were washed and the unspecific binding sites were blocked with Roti®-Block. 2. In the next step, the plates were simultaneously incubated with a tritium labeled known GPIIb/IIIa binder (^3H) mixed with increasing concentrations of the novel compounds (inhibitor). The higher the affinity of the inhibitor, the lower the bound fraction of the tritiated known GPIIb/IIIa binder (^3H) was. The fraction of tritiated compound (^3H), which is not displaced by inhibitor, was measured in a microplate scintillation counter.
Purified human glycoprotein IIb/IIIa (20 mM Tris-HCl, 0.1 M NaCl, 0.1% Triton X-100, 1 mM CaCl2, 0.05% NaN3, 50% Glycerol, pH 7.4) was purchased from Enzyme Research Laboratories Inc. (South Bend, Ind.). The GPIIb/IIIa receptor was diluted in phosphate-buffered saline (Dulbecco's Phosphate Buffered Saline (D-PBS (+)) with calcium and magnesium, GIBCO®, Invitrogen) with 0.01% bovine serum albumin (albumin from bovine serum—lyophilized powder, 96%, Sigma).
The GPIIb/IIIa receptor was immobilized 48 hours at least (100 μL per well, 48 to maximum 96 hours) on a 96-well solid plate (Immuno Plate MaxiSorp™, Nunc, Roskilde, Denmark) at 277 K to 280 K and at a concentration of 0.1 μg per well to 1 μg per well. As negative control one row of the plate (n=8) was incubated just with 2% bovine serum albumin (200 μL per well, albumin from bovine serum—lyophilized powder, ≧96%, Sigma, diluted in D-PBS (+)).
After washing three times with the wash buffer (230 μL per well, Dulbecco's Phosphate Buffered Saline (D-PBS (−)) contains no calcium or magnesium, GIBCO®, Invitrogen) residual exposed plastic and unspecific binding sites were blocked by incubating the plate with a special blocking solution (200 μL per well, Roti®-Block, Car Roth GmbH Co KG, Karlsruhe) containing 2% bovine serum albumin (Albumin from bovine serum—lyophilized powder, ≧96%, Sigma) 1 hour at room temperature.
After washing three times with the wash buffer 50 μL of tritiated reference compound (60 nM, ^3H-labeled compound) and 50 μL of novel compound (inhibitor) were simultaneously added to each well and incubated for 1 hour at room temperature. Several concentrations of each novel inhibitor (0.1, 1, 2, 5, 10, 20 50, 100, 200, 500, 1000, 2000, 5000, 10000 and 20000 nM) were investigated. At each concentration of inhibitor a fourfold determination was performed.
The maximum value of tritiated reference compound was determined without addition of inhibitor (n=8). To exclude unspecific binding of ^3H— reference compound wells without glycoprotein receptors were used as negative controls (n=12, identically treated just without GPIIb/IIIa receptors).
After one hour the plate was washed three times with phosphate-buffered saline (200 μL per well, Dulbecco's Phosphate Buffered Saline (D-PBS (+)), GIBCO®, Invitrogen). Following 140 μL of liquid scintillation cocktail (MicroScint™ 40 aqueous, Perkin Elmer) was added to each well. After 15 min at room temperature the plates were measured at the microplate scintillation counter (TopCount NXT v2.13, Perkin Elmer, Packard Instrument Company).
In the first step human glycoprotein IIb/IIIa, which is purified from human platelets, was immobilized on a 96-well solid plate. After 48 hours at least the plates were washed and the unspecific binding sites were blocked with Roti®-Block. In the next step, the plates were simultaneously incubated with a tritium labeled reference compound and the novel small molecule compound (inhibitor). The higher the affinity of the inhibitor, the smaller is the bound fraction of reference compound. The fraction of tritiated reference compound, which is not displaced by inhibitor, was measured at a microplate scintillation counter. The higher the affinity of the inhibitor, the smaller is the bound fraction of tritium-labeled reference compound. […]

The subject of assay [2] is human activated platelets. Kind of assay: Binding of investigated compounds to human activated platelets (ICP-MS of Gd in pellet and supernatant). The class given is cell-based. The following applies: ADP-activated platelet-rich plasma, 20 minutes. Here is the method: For each experiment fresh blood was taken from a volunteer using 10 mL citrate-tubes (Sarstedt S-Monovette 02.1067.001, 10 mL, Citrate 3.13%). The 10 mL citrate-tubes were carefully inverted 10 times to mix blood and anticoagulant. The tubes were stored in an incubator at a temperature of 37° C. until centrifugation (Heraeus miniTherm CTT with integrated rotation- and turning device, turning speed: 19 rotations per minute, Heraeus Instruments GmbH, Hanau/Germany).
For plasma preparation tube centrifugation was carried out for 15 minutes at 1811 g at room temperature (Eppendorf, Centrifuge 5810R). Blood was centrifuged 15 minutes at 201 g at room temperature to produce platelet-rich plasma. The tubes were stored for 30 min at room temperature to get a better separation. The separated platelet-rich plasma was finally centrifuged for further 3 min at 453 g to remove the remaining erythrocytes. The platelet-rich plasma was activated using a final concentration of 5 μM Adenosindiphosphate (ADP, Sigma). The activated platelet-rich plasma was incubated 20 minutes with different concentrations of gadolinium-labeled compound and subsequently was centrifuged 3 minutes at 1360 g. 20 μL of incubation solution was taken to determine the concentration (n=3). […] The gadolinium concentration of supernatant and pellet was determined using an inductively coupled plasma mass spectrometry (ICP-MS Agilent 7500a).
The results for incubation concentration of 1 μM gadolinium-labeled compound are summarized in table 3 (in comparison to Gadovist® standard dose: 100 μmol Gd/kg body weight).

Where [3] appears, read: incubation concentration 1 μM molecule, pellet was not washed.
The mark [4] stands for this setting: incubation concentration 1 μM molecule, pellet washed.

pIC50: −log10 of the molar value.

T1 sequence (P08514 32-887 limits assumed): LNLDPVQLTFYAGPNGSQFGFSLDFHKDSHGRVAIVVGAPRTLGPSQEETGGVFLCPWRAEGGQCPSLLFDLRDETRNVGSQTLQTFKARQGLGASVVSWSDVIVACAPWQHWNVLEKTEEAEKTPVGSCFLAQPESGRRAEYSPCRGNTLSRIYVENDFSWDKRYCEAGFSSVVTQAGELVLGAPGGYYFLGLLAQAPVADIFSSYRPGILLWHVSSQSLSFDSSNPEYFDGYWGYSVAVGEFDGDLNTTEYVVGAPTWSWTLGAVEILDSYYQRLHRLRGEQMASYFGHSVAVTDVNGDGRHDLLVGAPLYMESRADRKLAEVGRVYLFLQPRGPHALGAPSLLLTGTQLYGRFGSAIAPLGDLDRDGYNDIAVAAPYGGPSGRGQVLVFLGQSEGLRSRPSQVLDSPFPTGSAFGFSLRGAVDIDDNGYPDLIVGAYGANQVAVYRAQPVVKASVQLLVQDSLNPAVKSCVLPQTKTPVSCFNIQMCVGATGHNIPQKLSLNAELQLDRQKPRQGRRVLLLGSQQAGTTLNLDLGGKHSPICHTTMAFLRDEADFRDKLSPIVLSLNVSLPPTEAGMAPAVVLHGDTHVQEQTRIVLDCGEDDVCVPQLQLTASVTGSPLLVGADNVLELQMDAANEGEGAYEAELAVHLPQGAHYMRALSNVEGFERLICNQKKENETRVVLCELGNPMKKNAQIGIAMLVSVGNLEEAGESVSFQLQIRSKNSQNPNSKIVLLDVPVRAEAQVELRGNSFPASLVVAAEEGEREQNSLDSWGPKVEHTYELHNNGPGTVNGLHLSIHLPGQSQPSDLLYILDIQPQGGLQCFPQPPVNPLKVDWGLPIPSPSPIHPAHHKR
T1 sequence (P08514 891-1039 partner limits assumed): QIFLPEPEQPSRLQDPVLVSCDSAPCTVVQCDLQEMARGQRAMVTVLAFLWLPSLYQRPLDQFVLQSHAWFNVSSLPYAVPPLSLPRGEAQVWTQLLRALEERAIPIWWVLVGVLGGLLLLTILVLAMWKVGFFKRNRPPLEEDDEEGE
T1 sequence (P05106 27-788): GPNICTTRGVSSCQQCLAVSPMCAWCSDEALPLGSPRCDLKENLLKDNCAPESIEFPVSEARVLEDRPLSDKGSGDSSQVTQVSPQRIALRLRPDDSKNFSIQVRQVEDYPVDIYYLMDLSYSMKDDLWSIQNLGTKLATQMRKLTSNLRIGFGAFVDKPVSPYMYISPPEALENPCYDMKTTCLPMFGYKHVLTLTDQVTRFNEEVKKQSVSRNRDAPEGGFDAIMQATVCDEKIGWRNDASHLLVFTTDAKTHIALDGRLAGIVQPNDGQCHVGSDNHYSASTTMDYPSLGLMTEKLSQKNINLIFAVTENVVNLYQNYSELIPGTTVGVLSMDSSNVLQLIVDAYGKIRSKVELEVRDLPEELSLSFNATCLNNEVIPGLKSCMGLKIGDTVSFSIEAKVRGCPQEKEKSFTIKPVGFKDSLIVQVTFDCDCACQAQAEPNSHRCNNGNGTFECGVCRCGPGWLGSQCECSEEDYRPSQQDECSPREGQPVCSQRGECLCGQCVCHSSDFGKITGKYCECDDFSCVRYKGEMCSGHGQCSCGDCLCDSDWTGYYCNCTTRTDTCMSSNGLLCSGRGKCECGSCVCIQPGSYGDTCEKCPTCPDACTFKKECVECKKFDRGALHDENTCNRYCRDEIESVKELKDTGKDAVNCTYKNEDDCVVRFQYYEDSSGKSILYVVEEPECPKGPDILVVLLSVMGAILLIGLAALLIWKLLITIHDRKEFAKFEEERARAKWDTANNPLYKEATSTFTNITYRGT

The term pIC50 denotes the IC50 on a negative log10 scale, so that one unit is a factor of ten. Low readings indicate a large IC50, high ones a small IC50. Consider `C[C@@H](C(=O)NCC(=O)OCCC#Cc1cncc([C@H](CC(=O)O)NC(=O)[C@@H]2CCCN(C(=O)CCC3CCNCC3)C2)c1)N1CCN(CC(=O)O)CCN(CC(=O)O)CCN(CC(=O)O)CC1` [Example 1, Gadolinium 2,2′,2″-(10-{(2S)-1-[(2-{[4-(5-{(1S)-2-carboxy-1-[({(3R)-1-[3-(piperidin-4-yl)-propanoyl]piperidin-3-yl}carbonyl)amino]ethyl}pyridin-3-yl)but-3-yn-1-yl]oxy}-2-oxo-ethyl)amino]-1-oxopropan-2-yl}-1,4,7,10-tetraazacyclododecane-1,4,7-triyl)triacetate], for which the pIC50 in assay [1] was 7.54. On to `C[C@@H](C(=O)NCC(=O)NCCC#Cc1cncc([C@H](CC(=O)O)NC(=O)[C@@H]2CCCN(C(=O)CCC3CCNCC3)C2)c1)N1CCN(CC(=O)O)CCN(CC(=O)O)CCN(CC(=O)O)CC1` [Example 2, Gadolinium 2,2′,2″-(10-{(2S)-1-[(2-{[4-(5-{(1S)-2-carboxy-1-[({(3R)-1-[3-(piperidin-4-yl)-propanoyl]piperidin-3-yl}carbonyl)amino]ethyl}pyridin-3-yl)but-3-yn-1-yl]amino}-2-oxo-ethyl)amino]-1-oxopropan-2-yl}-1,4,7,10-tetraazacyclododecane-1,4,7-triyl)triacetate], for which, in assay [2] (setting [3]), the “Concentration within platelet pellet” value came to 8.1 ± 0.6 μM Gd. This compound had a pIC50 in assay [1] of 7.62.

`C[C@@H](C(=O)NCC(=O)NCCCCCCc1ccc(C#Cc2cncc([C@H](CC(=O)O)NC(=O)[C@@H]3CCCN(C(=O)CCC4CCNCC4)C3)c2)cc1)N1CCN(CC(=O)O)CCN(CC(=O)O)CCN(CC(=O)O)CC1` [Example 3, Gadolinium 2,2′,2″-{10-[(2S)-1-({2-[(6-{4-[(5-{(1S)-2-carboxy-1-[({(3R)-1-[3-(piperidin-4-yl)propanoyl]piperidin-3-yl}carbonyl)amino]ethyl}pyridin-3-yl)ethynyl]phenyl}hexyl)-amino]-2-oxoethyl}amino)-1-oxopropan-2-yl]-1,4,7,10-tetraazacyclododecane-1,4,7-triyl}triacetate]: the “Concentration within platelet pellet” value in assay [2] (setting [3]) came out at 8.3 ± 2.1 μM Gd. Besides, the negative logarithm of the IC50 (pIC50) in assay [1] is 7.89.

Consider `C[C@@H](C(=O)NCC(=O)NCCCCCCc1ccc(CCc2cncc([C@H](CC(=O)O)NC(=O)[C@@H]3CCCN(C(=O)CCC4CCNCC4)C3)c2)cc1)N1CCN(CC(=O)O)CCN(CC(=O)O)CCN(CC(=O)O)CC1` [Example 4, Gadolinium 2,2′,2″-{10-[(2S)-1-({2-[(6-{4-[(5-{(1S)-2-carboxy-1-[({(3R)-1-[3-(piperidin-4-yl)propanoyl]piperidin-3-yl}carbonyl)amino]ethyl}pyridin-3-yl)ethyl]phenyl}hexyl)-amino]-2-oxoethyl}amino)-1-oxopropan-2-yl]-1,4,7,10-tetraazacyclododecane-1,4,7-triyl}triacetate], for which, in assay [2] (setting [4]), the “Concentration within platelet pellet” value is given as 3.8 ± 0.2 μM Gd. In assay [1], this compound had a pIC50 of 7.60.

Regarding `CC(C(=O)NCC(=O)NCC(NC(=O)CNC(=O)C(C)N1CCN(CC(=O)O)CCN(CC(=O)O)CCN(CC(=O)O)CC1)C(=O)NCC(NC(=O)C(CNC(=O)CNC(=O)C(C)N1CCN(CC(=O)O)CCN(CC(=O)O)CCN(CC(=O)O)CC1)NC(=O)CNC(=O)C(C)N1CCN(CC(=O)O)CCN(CC(=O)O)CCN(CC(=O)O)CC1)C(=O)NCCCCc1cccc(CCc2cncc([C@H](CC(=O)O)NC(=O)[C@@H]3CCCN(C(=O)CCC4CCNCC4)C3)c2)c1)N1CCN(CC(=O)O)CCN(CC(=O)O)CCN(CC(=O)O)CC1` (stereo partly drawn) [Example 9, Tetragadolinium 2,3-bis({2,3-bis[(N-{2-[4,7,10-tris(carboxylatomethyl)-1,4,7,10-tetraazacyclododecan-1-yl]propanoyl}glycyl)amino]propanoyl}amino)-N-(4-{3-[(5-{(1S)-2-carboxy-1-[({(3R)-1-[3-(piperidin-4-yl)propanoyl]piperidin-3-yl}carbonyl)amino]ethyl}pyridin-3-yl)ethyl]phenyl}butyl)propanamide], the “Concentration within platelet pellet” value in assay [2] (incubation concentration 0.8 μM molecule, pellet washed) is recorded as 21.1 ± 9.6 μM Gd. The compound also showed a pIC50 in assay [1] of 7.49.

`CC(C(=O)NCC(=O)NC[C@H](NC(=O)CNC(=O)C(C)N1CCN(CC(=O)O)CCN(CC(=O)O)CCN(CC(=O)O)CC1)C(=O)NCCCc1ccc(C#Cc2cncc([C@H](CC(=O)O)NC(=O)[C@@H]3CCCN(C(=O)CCC4CCNCC4)C3)c2)cc1)N1CCN(CC(=O)O)CCN(CC(=O)O)CCN(CC(=O)O)CC1` (stereo partly drawn) [Example 10, Digadolinium N-{2-[4,7,10-tris(carboxylatomethyl)-1,4,7,10-tetraazacyclododecan-1-yl]-propanoyl}glycyl-N-(3-{4-[(5-{(1S)-2-carboxy-1-[({(3R)-1-[3-(piperidin-4-yl)propanoyl]-piperidin-3-yl}carbonyl)amino]ethyl}pyridin-3-yl)ethynyl]phenyl}propyl)-3-[(N-{2-[4,7,10-tris(carboxylatomethyl)-1,4,7,10-tetraazacyclododecan-1-yl]propanoyl}glycyl)-amino]alaninamide]: in assay [2] (setting [4]), the “Concentration within platelet pellet” value worked out at 13.9 ± 0.3 μM Gd. In assay [1], this compound had a pIC50 of 7.80. For `CC(C(=O)NCC(=O)NCC(NC(=O)CNC(=O)C(C)N1CCN(CC(=O)O)CCN(CC(=O)O)CCN(CC(=O)O)CC1)C(=O)NCC(NC(=O)C(CNC(=O)CNC(=O)C(C)N1CCN(CC(=O)O)CCN(CC(=O)O)CCN(CC(=O)O)CC1)NC(=O)CNC(=O)C(C)N1CCN(CC(=O)O)CCN(CC(=O)O)CCN(CC(=O)O)CC1)C(=O)NCCCc1ccc(C#Cc2cncc([C@H](CC(=O)O)NC(=O)[C@@H]3CCCN(C(=O)CCC4CCNCC4)C3)c2)cc1)N1CCN(CC(=O)O)CCN(CC(=O)O)CCN(CC(=O)O)CC1` (stereo partly drawn) [Example 11, Tetragadolinium 2,3-bis({2,3-bis[(N-{2-[4,7,10-tris(carboxylatomethyl)-1,4,7,10-tetraaza-cyclododecan-1-yl]propanoyl}glycyl)amino]propanoyl}amino)-N-(3-{4-[(5-{(1S)-2-carboxy-1-[({(3R)-1-[3-(piperidin-4-yl)propanoyl]piperidin-3-yl}carbonyl)amino]ethyl}-pyridin-3-yl)ethynyl]phenyl}propyl)propanamide], the “Concentration within platelet pellet” value in assay [2] (setting [4]) is recorded as 19.9 ± 0.9 μM Gd. In assay [1], this compound gave a negative logarithm of the IC50 (pIC50) of 7.59.
